Source: patent US20120237651A1 (priority 2002, published 2012)
Values joined by “and” are separate entries in the source; they are usually repeats but may differ in a detail not shown here. Identical values can stand only once. Counter-ions that a name gives are not always drawn. Like-named read-outs stand apart in the source and are kept apart here.

Key:
DON contamination [1] = assay: Field test, mixed use (2): DON contamination concentration by ELISA (Example 4); format: in vivo, Wheat (cultivar: Haruyutaka)
Fusarium head blight [2] = format: in vivo, Wheat (cultivar: Haruyutaka)
Fusarium head blight [3] = format: in vivo, Wheat (cultivar: Haruyutaka); remark: listed apart in the source
DON contamination [4] = assay: Field test, mixed use (1): DON contamination concentration by HPLC-UV (Example 3); format: in vivo, Wheat (cultivar: Haruyutaka)
Procedure: Wheat (cultivar: Haruyutaka) was seeded on Apr. […] A suspension containing potassium phosphite and various fungicidal agents was prepared in a liquid mixture made up of a spreading agent (Gramine S: supplied from Hokkai Sankyo Co., Ltd.) and water. Using potassium phosphite as the compound A, 0.070% P2O5, and the 0.006 to 0.025% fungicidal agent for agri-horticulture for the wheat as the compound B, water solution containing them was prepared, and 100 L thereof per 10 a was sprayed on leaves in the following growth stages. That is, the first spray (June 24, heading date), the second (June 30, flowering stage), the third (July 9) were performed. The harvest was performed on August 12 (50 days after the heading date) by harvesting the wheat in 3.4 m^2 in each section. […] The DON contamination concentration was analyzed using HPLC-UV method in officially fixed methods shown by the Minister of Health, Labor and Welfare. Quantitative analysis was performed by repeating three times, and the quantitative value was an average value thereof.
Preparation of analysis sample solutions and the analysis procedure are briefly described.
To 50 g of the whole grain powder, 85% acetonitrile was added, vigorously agitated for 30 min, and subsequently sonicated for 10 min.
After eliminating impurities with filter paper, a filtrate was purified using a pretreatment column MultiSep #227 to make a solution for analysis.
The test solution for analysis was injected into high performance liquid chromatography, and DON was detected by ultraviolet rays.

DON contamination [5] = system: DON contamination; parameters: species or system Wheat (cultivar: Haruyutaka); settings: in vivo
Fusarium head blight [6] = format: in vivo, Wheat (cultivar: Haruyutaka); remark: listed apart in the source
DON contamination [7] = assay: Field test, single use: DON contamination concentration of wheat whole grain powder by ELISA (Example 1); settings: for DON concentration: 3 foliar sprays
Procedure: Wheat (cultivar: Haruyutaka) was seeded on Apr. 19, 2002, and cultivated according to a conventional cultivating standard (Hokkaido, Agriculture Department, 1995) to establish test sections with 6.75 m^2 per section (3 repeats). […] That is, the first spray (June 28, flowering date), the second spray (Jul. 8, 10 days after the flowering date, and the third spray (Jul. 18, 20 days after the flowering date) were performed. A conventional control for the purpose of controlling plant pathogens and plant insects was performed together. That is, the first [June 20, azoxystrobin (2000 times dilution)+fenitrothion (1000 times dilution)], the second [tebuconazole (June 28, 2000 times dilution)+sumithione (1000 times dilution)], and the third [July 8, propiconazole (2000 times dilution)+fenitrothion (1000 times dilution)], the forth [July 17, tebuconazole (2000 times dilution)+fenitrothion (1000 times dilution)] were performed. As controls, the test section where only the conventional control was given and the test section without any control were established. Harvest was performed by harvesting the wheat in 4 m^2 in the test sections on August 9 (52 days after the heading date). After the harvest, the wheat was applied on a rice grader with 2.2 mm opening of screen to make selected grains, which were then pulverized by a rapid pulverizer to make whole grain powder. The whole grain powder was used as a sample for analysis. The DON contamination concentration was analyzed by ELISA method using commercially available Rida Screen Fast Don supplied from r-Biopharm.
Preparation of analysis sample solutions and analysis procedure are briefly described.
To 5 g of the whole grain powder, 100 ml of water was added, and vigorously agitated for 10 min to make a DON extract solution.
The DON extract solution was centrifuged at high speed, and the supernatant was used for the ELISA analysis.
According to the method described on ELISA kit, various reagents were added, and subsequently an absorbance of each test solution was measured.
The DON concentration of each test solution was read out from a standard curve made using DON standard solutions.

Fusarium graminearum [8] = format: cell-based; settings: for Ergosterol peak area: day 28 of culture
[9] = system: Fusarium graminearum having DON production capacity; format: cell-based
Fusarium graminearum [10] = format: cell-based; settings: potassium phosphite 5.6%; for Ergosterol peak area value: 27° C.
[11] = system: Fusarium graminearum having DON production capacity; format: cell-based; remark: listed apart in the source
[12] = Trifloxystrobin 0.025% mixed with potassium phosphite 0.070% in P2O5
[13] = Trifloxystrobin 0.025%, without potassium phosphite
[14] = Kresoxim-methyl 0.021% mixed with potassium phosphite 0.07% P2O5
[15] = Kresoxim-methyl 0.021%, without potassium phosphite
[16] = Iminoctadine acetate 0.025% mixed with potassium phosphite 0.07% P2O5
[17] = Iminoctadine acetate 0.025%, without potassium phosphite
[18] = Tebuconazole 0.020% mixed with potassium phosphite 0.07% P2O5
[19] = Tebuconazole 0.020% mixed with potassium phosphite 0.070% in P2O5
[20] = Tebuconazole 0.020%, without potassium phosphite
[21] = sulfur 0.125% mixed with potassium phosphite 0.070% in P2O5
[22] = sulfur 0.125%, without potassium phosphite
[23] = active ingredient A 0.112% (as P2O5), conventional control
[24] = Metconazole 0.006% mixed with potassium phosphite 0.07% P2O5
[25] = Metconazole 0.006%, without potassium phosphite
[26] = potassium phosphite 0.07% P2O5 alone, no active ingredient B
[27] = potassium phosphite 0.070% in P2O5 alone, no active ingredient B
[28] = active ingredient A 0.038% (as P2O5), conventional control
[29] = active ingredient A 0.070% (as P2O5), conventional control
[30] = active ingredient A 0.112% (as P2O5), no control
[31] = Propiconazole 0.017% mixed with potassium phosphite 0.07% P2O5
[32] = Propiconazole 0.017% mixed with potassium phosphite 0.070% in P2O5
[33] = Propiconazole 0.017%, without potassium phosphite
[34] = active ingredient A 0.120% (as P2O5), conventional control

Compound: CON=C(C(=O)OC)c1ccccc1CON=C(C)c1cccc(C(F)(F)F)c1 [Trifloxystrobin]
- DON concentration (DON contamination [1]; [12]): 0.12 ppm
- DON concentration (DON contamination [1]; [13]): 0.35 ppm
- Incidence rate for panicles (Fusarium head blight [2]; [12]): 3.0%
- Number of diseased spikelets/panicle (Fusarium head blight [2]; [12]): 3.0
- Incidence rate for panicles (Fusarium head blight [2]; [13]): 4.3%
- Number of diseased spikelets/panicle (Fusarium head blight [2]; [13]): 5.0

Compound: CO/N=C(/C(=O)OC)c1ccccc1COc1ccccc1C [Kresoxim-methyl, methyl=(E)-2-methoxyimino[α-(o-tolyloxy)-o-tolyl]acetate]
- Incidence rate for panicles (Fusarium head blight [3]; [14]): 0.7%
- Number of diseased spikelets/panicle (Fusarium head blight [3]; [14]): 0.007
- Incidence rate for panicles (Fusarium head blight [3]; [15]): 0.3%
- Number of diseased spikelets/panicle (Fusarium head blight [3]; [15]): 0.003
- DON concentration (DON contamination [4]; [14]): 0.51 ppm
- DON concentration (DON contamination [4]; [15]): 1.05 ppm

Compound: Iminoctadine albesilate
- DON concentration (DON contamination [1]; Iminoctadine albesilate 0.030% mixed with potassium phosphite 0.070% in P2O5): 0.00 ppm
- DON concentration (DON contamination [1]; Iminoctadine albesilate 0.030%, without potassium phosphite): 0.22 ppm
- Incidence rate for panicles (Fusarium head blight [2]; in vivo): 7.3% and 2.7%

Compound: CC(=O)O.CC(=O)O.CC(=O)O.NC(N)=NCCCCCCCCNCCCCCCCCN=C(N)N [Iminoctadine acetate, 1,1′-iminodi(octamethylene)diguanidium=triacetate]
- Incidence rate for panicles (Fusarium head blight [3]; [16]): 3.0%
- Number of diseased spikelets/panicle (Fusarium head blight [3]; [16]): 0.030
- Incidence rate for panicles (Fusarium head blight [3]; [17]): 1.7%
- Number of diseased spikelets/panicle (Fusarium head blight [3]; [17]): 0.017
- DON concentration (DON contamination [4]; [16]): 0.20 ppm
- DON concentration (DON contamination [4]; [17]): 1.04 ppm

Compound: CC(C)(C)C(O)(CCc1ccc(Cl)cc1)Cn1cncn1 (racemic) [Tebuconazole, (RS)-1-p-chlorophenyl-4,4-dimethyl-3-(1H-1,2,4-triazol-1-ylmethyl)pentan-3-ol]
- Incidence rate for panicles (Fusarium head blight [3]; [18]): 1.0%
- Number of diseased spikelets/panicle (Fusarium head blight [3]; [18]): 0.010
- DON concentration (DON contamination [1]; [19]): 0.08 ppm
- DON concentration (DON contamination [1]; [20]): 0.16 ppm
- Incidence rate for panicles (Fusarium head blight [2]; [19]): 5.0%
- Number of diseased spikelets/panicle (Fusarium head blight [2]; [19]): 5.0
- DON concentration (DON contamination [4]; [18]): 0.38 ppm
- DON concentration (DON contamination [4]; [20]): 0.39 ppm

Compound: S1SSSSSSS1 [sulfur]
- DON concentration (DON contamination [1]; [21]): 0.43 ppm
- DON concentration (DON contamination [1]; [22]): 1.85 ppm
- Incidence rate for panicles (Fusarium head blight [2]; [21]): 8.7%
- Number of diseased spikelets/panicle (Fusarium head blight [2]; [21]): 8.7
- Incidence rate for panicles (Fusarium head blight [2]; [22]): 8.7%
- Number of diseased spikelets/panicle (Fusarium head blight [2]; [22]): 10.3

Compound: potassium phosphate
- DON concentration diseased grain (DON contamination [5]): 86.9 ppm
- DON concentration healthy grain (DON contamination [5]): 0.06 ppm
- Incidence rate of Fusarium head blight for panicles (Fusarium head blight [6]; [23]): 0.0%
- DON inhibitory effect (DON contamination [7]; Example 1, summary in text): low
- DON concentration (DON contamination [7]; [23]): 4.66 ppm

Compound: CC1(C)CCC(Cc2ccc(Cl)cc2)C1(O)Cn1cncn1 (racemic) [Metconazole, (1RS,5RS)-5-(4-chlorobenzyl)-2,2-dimethyl-1-(1-H-1,2,4-triazol-1-ylmethyl)cyclopentanol]
- Incidence rate for panicles (Fusarium head blight [3]; [24]): 1.0%
- Number of diseased spikelets/panicle (Fusarium head blight [3]; [24]): 0.010
- Incidence rate for panicles (Fusarium head blight [3]; [25]): 0.7%
- Number of diseased spikelets/panicle (Fusarium head blight [3]; [25]): 0.007
- DON concentration (DON contamination [4]; [24]): 0.10 ppm
- DON concentration (DON contamination [4]; [25]): 0.34 ppm

Compound: potassium phosphite
- Incidence rate for panicles (Fusarium head blight [3]; [26]): 4.3%
- Number of diseased spikelets/panicle (Fusarium head blight [3]; [26]): 0.050
- DON concentration healthy grain (DON contamination [5]): 0.05 ppm and 0.04 ppm
- DON contamination concentration in diseased grains (DON contamination [5]): decreased depending on the given concentration of potassium phosphite
- DON concentration (DON contamination [1]; [27]): 0.57 ppm
- DON contamination amount (DON contamination [1]; single agent treatment with the compound A): at a low level
- Incidence rate for panicles (Fusarium head blight [2]; [27]): 10.3%
- Number of diseased spikelets/panicle (Fusarium head blight [2]; [27]): 11.0
- Incidence rate of Fusarium head blight for panicles (Fusarium head blight [6]; [28]): 0.3%
- Incidence rate of Fusarium head blight for panicles (Fusarium head blight [6]; [29]): 0.0%
- Incidence rate of Fusarium head blight for panicles (Fusarium head blight [6]; [23]): 0.9%
- Incidence rate of Fusarium head blight for panicles (Fusarium head blight [6]; [30]): 1.2%
- Ergosterol peak area (Fusarium graminearum [8]; treatment concentration 0.028%): 1810454
- Ergosterol peak area (Fusarium graminearum [8]; treatment concentration 0.056%): 1834861
- Ergosterol peak area (Fusarium graminearum [8]; treatment concentration 0.112%): 1769582
- Ergosterol peak area (Fusarium graminearum [8]; treatment concentration 0.560%): 1921693
- Ergosterol peak area (Fusarium graminearum [8]; treatment concentration 2.800%): 85891
- inhibitory effect on the fungal amount (Fusarium graminearum [8]; water solution of 0.056 to 0.560% potassium phosphite, compared to non-treatment): inhibitory effect on the fungal amount at a moderate degree
- inhibitory effect on the fungal amount (Fusarium graminearum [8]; water solution of 2.800% potassium phosphite): remarkable inhibitory effect on the fungal amount
- DON amount [9]: significantly lower than that in the non-treatment
- DON concentration (DON contamination [7]; [28]): 2.41 ppm
- DON concentration (DON contamination [7]; [29]): 0.59 ppm
- DON concentration (DON contamination [7]; [23]): 0.39 ppm
- DON concentration (DON contamination [7]; [30]): 0.69 ppm
- Ergosterol peak area value (Fusarium graminearum [10]; 7 days of culturing): 17952
- Ergosterol peak area value (Fusarium graminearum [10]; 14 days of culturing): 115921
- Ergosterol peak area value (Fusarium graminearum [10]; 21 days of culturing): 372377
- Ergosterol peak area value (Fusarium graminearum [10]; 28 days of culturing): 350972
- amount of ergosterol (indicator of the amount of fungi) (Fusarium graminearum [10]; course over culture): reached a plateau on the 21st day
- DON [11]: ND. (key: ND.: ND means that the analytical value is less than the detection limit (0.222 ppm) of the ELISA analysis kit.)
- DON production [11]: not detected
- DON concentration (DON contamination [4]; [26]): 0.77 ppm

Compound: CCCC1COC(Cn2cncn2)(c2ccc(Cl)cc2Cl)O1 (stereo not drawn) [Propiconazole, 1-[2-(2,4-dichlorophenyl)-4-propyl-1,3-dioxolan-2-ylmethyl)-1H-1,2,4-triazole]
- Incidence rate for panicles (Fusarium head blight [3]; [31]): 2.7%
- Number of diseased spikelets/panicle (Fusarium head blight [3]; [31]): 0.027
- DON concentration (DON contamination [1]; [32]): 0.11 ppm
- DON concentration (DON contamination [1]; [33]): 0.57 ppm
- Incidence rate for panicles (Fusarium head blight [2]; [32]): 4.7%
- Number of diseased spikelets/panicle (Fusarium head blight [2]; [32]): 5.0
- DON concentration (DON contamination [4]; [31]): 0.72 ppm
- DON concentration (DON contamination [4]; [33]): 1.01 ppm

Compound: CCO[PH](=O)O [Fosetyl, aluminium salt (common name: fosetyl) of tris(ethylphosphonate)]
- DON concentration diseased grain (DON contamination [5]): 11.0 ppm
- DON concentration healthy grain (DON contamination [5]): 0.96 ppm
- Incidence rate of Fusarium head blight for panicles (Fusarium head blight [6]; [34]): 0.0%
- DON concentration (DON contamination [7]; [34]): 0.84 ppm
